Assay results published in US20190167819A1, “CONTRAST AGENTS” (BRACCO IMAGING S.P.A., priority 2016, published 2019).

assay: Relaxometric properties: longitudinal relaxivity r1p in human plasma; format: physicochemical; details: 0.47 T, 37° C.
Method: The relaxometric properties of some representative complex compounds according to the invention have been determined at different magnetic field strengths, e.g. including 0.47 and 1.41 T, at 37° C. and in different media (physiologic solution and human plasma) and compared with relaxivity values measured, at the same conditions, for some Gd-Complex of the market having an analogous cyclic coordination cage.
The longitudinal water proton relaxation rate (R1=1/T1) was measured at 0.47 T with a Minispec MQ-20 spectrometer (Bruker Biospin, Germany) operating at a proton Larmor frequency of 20 MHz; MR experiments at 1.41 T were performed using a Minispec MQ-60 spectrometer (Bruker Biospin, Germany) operating at a proton Larmor frequency of 60 MHz.
All test articles were used as supplied and diluted in the selected medium (physiologic solution or human plasma) by weighting the required amount of paramagnetic chelated complex to get a 5 or 10 mM starting solution.
Five different concentration samples (0.1, 0.25, 0.5, 0.75 and 1 mM) for each medium have been prepared by further dilution of the starting 5 or 10 mM solution.
Relaxivity measurements were performed at 0.47 T and 1.41 T at a preset temperature sample of 37° C., kept constant by means of a thermostatic bath connected to the sample holder of the spectrometer. The five sample solutions have been preliminary pre-heated at 37° C. in an external thermostatic bath and then left 10 minutes inside the internal bath to assure the stabilization of the temperature. Longitudinal relaxation time T1 was measured by means of a standard inversion recovery sequence, where the inversion time (TI) was varied from 10 ms to at least 5 times T1 in 15 steps. Statistical analysis (mono-exponential fitting for T1 measurement, linear fitting for the evaluation of longitudinal relaxivity) was performed by Mathematica® (Wolfram, USA). Errors on the estimated parameters were evaluated by the fitting procedure.

Structure (SMILES)	r1p in human plasma [mM⁻¹ s⁻¹]
O=C(O)CN1CCN(CC(=O)O)CCN(CC(=O)O)CCN(CC(=O)O)CC1	4.5
O=C(O)CN1CCN(CC(O)COCC(COCC(O)CN2CCN(CC(=O)O)CCN(CP(=O)(O)O)CCN(CC(=O)O)CC2)OCc2ccccc2)CCN(CC(=O)O)CCN(CP(=O)(O)O)CC1 (stereo not drawn)	7.41
CC(O)CN1CCN(CC(=O)O)CCN(CC(=O)O)CCN(CC(=O)O)CC1 (stereo not drawn) (Gd complex, metal not drawn)	4.9

same assay, conditions: 1.41 T, 37° C.

Structure (SMILES)	r1p in human plasma [mM⁻¹ s⁻¹]
O=C(O)CN1CCN(CC(=O)O)CCN(CC(=O)O)CCN(CC(=O)O)CC1	3.6
O=C(O)CN1CCN(CC(O)COCC(COCC(O)CN2CCN(CC(=O)O)CCN(CP(=O)(O)O)CCN(CC(=O)O)CC2)OCc2ccccc2)CCN(CC(=O)O)CCN(CP(=O)(O)O)CC1 (stereo not drawn)	6.8
CC(O)CN1CCN(CC(=O)O)CCN(CC(=O)O)CCN(CC(=O)O)CC1 (stereo not drawn) (Gd complex, metal not drawn)	4.15
